{
  "source": "patent US7693320B2",
  "about": "“Three time point lung cancer detection, diagnosis and assessment of prognosis” (Yeda Research and Development Co. Ltd., priority 2004, dated 2010)",
  "key": {"[1]": {"parameters": "species or system patients", "conditions": "human, in vivo, iv", "source_text": "For example, in a CT application, HU units (Hounsfield Units) measuring signal intensity S(t) are converted to Ultravist 300 concentration units (ml ultravist 300 solution/liter saline). The relationship between the measured signal intensity S(t) in HU and the concentration C(t) of contrast material (in ml per l) is described by: S(t)=p+qC(t) (1) where p and q are parameters to be determined.\nEnhancement, E(t), is defined as the difference in signal intensities before and after contrast material injection: E(t)=S(t)−S(t0)=q[C(t)−C(t0)] (2)\nThe experimental factor that converts HU units to contrast material concentration units can be determined by preparing tubes with different concentrations of Ultravist 300 in normal saline. The tubes can then be scanned by the CT.\nFor example, for prepared concentrations, C (in ml Ultravist 300 per 1 saline), may be in the range of 0 to 2% (20 ml per l) which is approximately the concentration in the blood after the injection. […] (The dose of 1.5 ml/kg in a 70 kg patient corresponds to ˜20 ml/l, about 2% in blood.)\nThe contrast agent for the CT was Iopromide (Ultravist 300; Schering) at a dose of 1.5 ml/kg, delivered through the antecubital vein at a rate of 3 ml/sec using an automatic injector (EnVision CT™). The patients were instructed to hold their breath following maximal expiration during the scanning, to decrease movement.\nFor each patient, the inventors recorded the signal intensity, S, of a central ROI in the aorta before contrast administration and at a selected time point after contrast injection. The inventors in the research study used the relation between HU and concentration units of Ultravist 300 (see above) to convert the measured enhancement to the corresponding concentration in the aorta, Cp(t), assuming similar pharmacokinetics for all patients with normal kidney function. Cp(t) in ml contrast agent per liter blood was fitted to the equation: Cp(t)=D(a1e^−m1^t+a2e^−m2^t) D=dose in ml/kg […] Eq. 3. to obtain: a1=8.48 kg/l, a2=7.34 kg/l, m1=1.43 min^−1, m2=0.1 min^−1.\nFIG. 2 illustrates enhancement (as defined in Eq. 2) in the aorta as a function of time after Iopromide (ultravist 300) injection at a dose of 0.15 ml/kg. The decay in the enhancement followed eq. 3 using the concentration to enhancement conversion (equation 2)."}, "[2]": {"conditions": "cited from earlier work"}},
  "data": [
    {"smiles": "COCC(=O)Nc1c(I)c(C(=O)NCC(O)CO)c(I)c(C(=O)N(C)CC(O)CO)c1I", "note": "(stereo not shown) [Iopromide]", "values": [
      {"measurement": "a1 (amplitude of Cp(t)=D(a1e^-m1t+a2e^-m2t))", "setting": "[1]", "value": 8.48, "unit": "kg/L"},
      {"measurement": "a2 (amplitude of Cp(t)=D(a1e^-m1t+a2e^-m2t))", "setting": "[1]", "value": 7.34, "unit": "kg/L"},
      {"measurement": "m1 (decay rate constant of Cp(t))", "setting": "[1]", "value": 1.43, "unit": "min⁻¹"},
      {"measurement": "m2 (decay rate constant of Cp(t))", "setting": "[1]", "value": 0.1, "unit": "min⁻¹"},
      {"measurement": "fraction of the dosage excreted in feces", "setting": "[2]; following IV administration", "value": 1.5, "unit": "%"},
      {"measurement": "half-life of distribution in the extracellular space", "setting": "[2]; following IV administration", "value": 3, "unit": "min"},
      {"measurement": "elimination half-life", "setting": "[2]; patients of normal kidney function, irrespective of the dose", "value": "~2", "unit": "h"}
    ]}
  ]
}
